Test system: senescent human neonatal dermal fibroblasts
Experiment: Crystal violet staining of shRNA-transduced senescent fibroblasts (FIG. 4)
Type: cell-based
Settings: lentiviral shRNA, puromycin 72 hours, crystal violet at 20 days; senescence by bleomycin 10 μg/ml 24 hr + 10 days
Description: FIG. 4. Effect of selected shRNAs on viability of proliferating and senescent human neonatal dermal fibroblasts. Senescence was induced by treatment with bleomycin (10 μg/ml) for 24 hr followed by incubation for 10 days to establish senescent phenotype. (1) The proliferating and senescent cells were transduced with lentiviruses carrying both shRNA and mCherry constructs. Transduced cells were selected with puromycin for 72 hours and the presence of shRNA construct was confirmed by microscopic detection of mCherry fluorescence (see example of mCherry fluorescence in FIG. 4, panel 1). In 8 days for proliferating and 20 days for senescent cells, the cells were stained with crystal violet dye. The images of the live/dead cells were obtain using a digital camera (panels 2-4).
To confirm universal activity of identified target genes across different senescence models 60 candidate shRNA identified in all primary screenings were transduced to a secondary models of senescence: human diploid dermal fibroblasts induced to senescence by bleomycin treatment (DNA-damage induction) or senescence was induced by replicative exhaustion (replicative senescence).

| Substance | effect on viability of senescent cells |
| --- | --- |
| FGF1: shRNA coding sequence targeting FGF1 (DNA CCTGATAACAAGTAAGGATATGTTAATATTCATAGCATATCCTTGCTTGTTATCAGG) | critical for viability of senescent cells |
| POU5F1: shRNA coding sequence targeting POU5F1 (DNA TCATTCACTAAGGAAGGAATTGTTAATATTCATAGCAATTCCTTCCTTAGTGAATGA) | critical for viability of senescent cells |

Source: US9909125B2, “Molecular targets for selective eradication of senescent cells” (Everon Biosciences, Inc., priority 2013, dated 2018)
